We go through one molecule from patent publication US20080003282A1, “Antiparasitical agents and methods for treating, preventing and controlling external parasites in animals” (priority 2005, published 2008).

Molecules are shown by their SMILES. Where two headings read alike, the source gives them in different places.

On the set-up of series [1]: species or system dogs. Conditions: dog, po, 10 mg/kg. The protocol:
In Vivo Degradation Study—Oral Administration
An oral formulation (solution) comprising 100 mg/ml of thioamide derivatives of fipronil dissolved in 60:40 propylene glycol: glycerol formal was orally administered to dogs at a dosage rate of 10 mg/kg and the concentration of fipronil in blood plasma measured at 6 hours, day 1, day 2, and day 7 and is presented below

Series [2] is classed as physicochemical. The protocol:
In Vitro Degradation Studies
A solution containing thioamide derivative of fipronil (“TD-fipronil”) in a solution of CH3CN/H2O (50:50 v/v) and the solution was subjected to the following degradation agents: an acid (0.5 N HCl); a base (0.5 N NaOH); fluorescent light; heat (65° C.); an oxidizer (5% H2O2); and UV light. The identity of fipronil formed was confirmed via HPLC with UV detection and HPLC with diode array detection.

As for `NC(=S)c1nn(-c2c(Cl)cc(C(F)(F)F)cc2Cl)c(N)c1[S+]([O-])C(F)(F)F` (stereo not shown) [TD-fipronil], the “in vivo degradation into fipronil judged against efficacy” value in series [1] is “degrades into fipronil in vivo in amounts that are sufficient for efficacy against fleas and ticks”. For the same molecule, the degradation product formed entry in series [2] is on record as “fipronil sulfone”. Moreover, in series [2], the “stability in acid” value is given as “stable in acid”. Moreover, the fipronil formed entry was “being degraded in 4 days; negligible amounts” in series [2] (Acid (0.5 N HCl), 4 days); “no fipronil was formed” in series [2] (Base (0.5 N NaOH)); “no fipronil was formed” in series [2] (Oxidation (5% H2O2)). In addition, the “sensitivity to light” value in series [2] (UV light) was “very sensitive to light”.
